Entries after “also recorded” stand apart in the source; their conditions may differ.
Key:
Vps15 LKO mice [1] = assay: Histological analyses of liver tissue (hematoxylin/eosin, Sirius Red) in treated control and Vps15 LKO mice; type: in vivo; details: two weeks
Source text: (§1) The Vsp15 conditional mutant mouse line was established at the MCI/ICS (Mouse Clinical Institute—Institute Clinique de la Souris, Illkirch, France) as described (Nemazanyy, I. et al. Defects of Vps15 in skeletal muscles lead to autophagic vacuolar myopathy and lysosomal disease. EMBO Mol. Med. (2013). Liver specific Vps15 knockout mouse line was generated as described (Nemazanyy I et al., Class III PI3K regulates organismal glucose homeostasis by providing negative feedback on hepatic insulin signalling. Nat Commun. 2015 Sep. 21; 6:8283.). Mice were housed in specific pathogen-free conditions. Male mice (5-8-week-old) were used for the experimentation. Mice were randomly allocated to experimental groups and at least three animals were used for each condition (as indicated in figure legends) to ensure statistics analyses. Animal numbers were chosen to reflect the expected magnitude of response that takes into account the variability observed in previous experiments. All animal studies were approved by the Direction Départementale des Services Vétérinaires, Prefecture de Police, Paris, France (authorization number 75-1313) and the ethical committee of Paris Descartes University (17-052).
(§2) All animals used in the study were fed ad libitum standard chow diet (Teklad global protein diet; 20% protein, 75% carbohydrate, 5% fat) and kept under 12 h/12 h (8 am/8 pm) light on/off cycle. Animals were sacrificed between 2-4 pm unless indicated. […] For 5-bromo-2′deoxyuridine (BrdU) incorporation, mice were treated with BrdU (3 mg/ml, Sigma-Aldrich) dissolved in drinking water for 3 days before sacrifice. […]. For immunohistochemical analysis liver tissue was fixed overnight in phosphate-buffered 10% formalin and embedded in paraffin. […] sections were cut and processed either for staining with eosin/hematoxylin, Sirius Red or for immunohistochemical analyses. Plasmatic TG, Billirubin, Hydroxybutyrate, AST and ALAT activities were measured enzymatically using Olympus AU 400 apparatus.
For immunohistochemical analysis, liver tissue was fixed overnight in phosphate-buffered 10% formalin and embedded in paraffin. 4 μm sections were cut and processed either for staining with eosin/hematoxylin or for immunohistochemical analyses. Post-staining analyses were performed on digitalized with the NanoZoomer S210 (Hamamatsu) liver tissue slices. Immunohistochemistry of liver tissue sections was performed using anti-p62 (Abnova), anti-TROMA-III-s (DSHB), anti-cytokeratin (AbCyst) or with anti-Lamp1 (Abcam) antibodies.

Vps15 LKO mice [2] = assay: Plasma biochemical analyses (TG, ALAT, AST) and spleen weight to body weight ratio in treated mice; type: in vivo; details: two weeks
Source text: as §1, §2

Vps15 LKO mice [3] = assay: Immunoblot analyses of total protein liver extracts (Lamp1, Lamp2, p62, LC3, FABP1) of treated mice; type: in vivo; details: two weeks
Source text: as §1, §2
To prepare protein extract for immunoblot analysis, liver tissue was homogenized in lysis buffer containing 20 mM Tris-HCl (pH 8.0), 5% glycerol, 138 mM NaCl, 2.7 mM KCl, 1% NP-40, 20 mM NaF, 5 mM EDTA, 1× protease inhibitors (Roche), 1× PhosphoStop Inhibitors (Roche). Homogenates were spun at 12000×g for 10 min at 4° C. Protein extracts were resolved by SDS-PAGE before transfer onto PVDF membrane followed by incubation with the primary antibodies and HRP-linked secondary antibodies. Immobilon Western Chemiluminescent HRP Substrate (Millipore) was used for the detection. The images were acquired using ChemiDocTouch Imaging System (BioRad) and the quantification performed using ImageJ software.

Vps15 LKO mice [4] = assay: Targeted metabolomics of acyl-carnitine fatty acid species in liver tissue of treated mice; type: in vivo; details: two weeks
Source text: as §1, §2
Targeted metabolomics analyses were performed on liver tissue extracts obtained with solution of 50% methanol, 30% ACN, and 20% water. The volume of extraction solution added was calculated from weight of powdered tissue (60 mg/ml). After addition of extraction solution, samples were vortexed for 5 min at 4° C., and then centrifuged at 16,000×g for 15 min at 4° C. The supernatants were collected and analysed by liquid chromatography-mass spectrometry using SeQuant ZIC-pHilic column (Merck) for the liquid chromatography separation. Mobile phase A consisted of 20 mM ammonium carbonate plus 0.1% ammonia hydroxide in water. Mobile phase B consisted of ACN. The flow rate was kept at […], and the gradient was 0 min, 80% of B; 30 min, 20% of B; 31 min, 80% of B; and 45 min, 80% of B. The mass spectrometer (QExactive Orbitrap, Thermo Fisher Scientific) was operated in a polarity switching mode and metabolites were identified using TraceFinder Software (Thermo Fisher Scientific). For analyses, metabolomics data were normalized using the median normalization method. MetaboAnalyst 4.0 software was used for heatmaps generation. The algorithm for heatmap clustering was based on the Pearson distance measure for similarity and the Ward linkage method for biotype clustering.

BA patients = details: large clinical use during many years, no controlled studies; cited from earlier work
PPARα = type: in vivo; details: Vps15 LKO mice, two weeks
Description: All animals used in the study were fed ad libitum standard chow diet (Teklad global protein diet; 20% protein, 75% carbohydrate, 5% fat) and kept under 12 h/12 h (8 am/8 pm) light on/off cycle. Animals were sacrificed between 2-4 pm unless indicated. […] Plasmatic TG, Billirubin, Hydroxybutyrate, AST and ALAT activities were measured enzymatically using Olympus AU 400 apparatus.
Total RNA was isolated from liver tissue using RNAeasy Lipid Tissue Mini Kit (Qiagen). Single-strand complementary DNA was synthesized from 1 μg of total RNA using 125 ng of random hexamer primers and SuperScript II (Life Technologies). RT-qPCR was performed on MX3005P instrument (Agilent) using a Brilliant III Ultra-Fast QPCR Master Mix (Agilent). The relative amounts of the mRNAs studied were determined by means of the 2^−ΔΔCT method, with pinin, S18, cyclophilin, eIF2α, HUS, Ubiquitin as reference genes for studies in mice and pinin for studies in human patient samples.

[5] = Vps15 LKO mice, drug incorporated in food
[6] = Vps15 LKO mice, once per day by oral gavage
[7] = Vps15 LKO mice, once per day by oral gavage, listed as FENO
[8] = control mice, fenofibrate incorporated in food
[9] = Vps15 LKO mice, drug incorporated in food, listed as BEZA

CC(C)OC(=O)C(C)(C)Oc1ccc(C(=O)c2ccc(Cl)cc2)cc1 [fenofibrate, 2-{4-[(4-chlorophenyl)carbonyl]phenoxy}-2-méthylpropanoatede propan-2-yle]
hepatocyte vacuolation (hematoxylin/eosin) (Vps15 LKO mice [1]; [5]): significantly decrease hepatocyte vacuolation; also recorded: rescues hepatocyte vacuolation | hepatocyte volume (histology) (Vps15 LKO mice [1]; [5]): reduce hepatocyte volume | inflammatory cell infiltration in liver (histology) (Vps15 LKO mice [1]; [5]): reduce hepatocyte volume and inflammatory cell infiltration | liver fibrosis / collagen deposition (quantification of Sirius Red staining) (Vps15 LKO mice [1]; [5]): lower; also recorded: decreased | portal area organization / architecture of intrahepatic biliary system (histology) (Vps15 LKO mice [1]; [5]): effective in improving the portal area organization; also recorded: ameliorates architecture of biliary system | hepatocyte volume (histology) (Vps15 LKO mice [1]; [6]): reduce hepatocyte volume | hepatocyte vacuolation (hematoxylin/eosin) (Vps15 LKO mice [1]; [7]): sufficient to decrease hepatocyte vacuolation; also recorded: rescues hepatocyte vacuolation | portal area organization / architecture of intrahepatic biliary system (histology) (Vps15 LKO mice [1]; [7]): improve the portal area organization; also recorded: ameliorates architecture of intrahepatic biliary system | hepatocyte hypertrophy (histology) (Vps15 LKO mice [1]; [8]): resulted in hepatocyte hypertrophy | liver damage: activity of transaminases (ALAT, AST) in plasma (Vps15 LKO mice [2]; [5]): significantly decreased activity of transaminases; also recorded: more effective in lowering liver damage compared to bezafibrate; also recorded: significantly ameliorates liver damage | triglyceride (TG) levels in plasma (Vps15 LKO mice [2]; [5]): resulted in their normalization; also recorded: effective in lowering TG levels; also recorded: beneficial effect in lowering plasmatic triglycerides | triglyceride (TG) levels in plasma (Vps15 LKO mice [2]; [6]): effective in lowering TG levels | triglyceride levels in plasma (Vps15 LKO mice [2]; [8]): effective in lowering triglyceride levels | LC3 lipidation (LC3-II form) in liver (immunoblot) (Vps15 LKO mice [3]; [5]): induced an important lipidation of LC3 protein; also recorded: promoted LC3-lipidation | accumulation of Lamp proteins (Lamp1, Lamp2) in liver (immunoblot) (Vps15 LKO mice [3]; [5]): significantly ameliorated; also recorded: significantly reverted | autophagic clearance in liver (Vps15 LKO mice [3]; [5]): promotes autophagic clearance | p62 protein levels in liver (immunoblot) (Vps15 LKO mice [3]; [5]): significantly ameliorated; also recorded: decreased levels of p62 protein | LC3 lipidation (LC3-II form) in liver (immunoblot) (Vps15 LKO mice [3]; [6]): promoted LC3-lipidation | accumulation of Lamp1 protein in liver (immunoblot) (Vps15 LKO mice [3]; [6]): reduced | autophagic clearance in liver (Vps15 LKO mice [3]; [6]): promoted autophagic clearance | p62 protein levels in liver (immunoblot) (Vps15 LKO mice [3]; [6]): reduction of p62 accumulation | protein expression of PPARα target Fabp1 in liver (immunoblot) (Vps15 LKO mice [3]; [6]): equally effective in restoring | LC3 lipidation (LC3-II form) in liver (immunoblot) (Vps15 LKO mice [3]; [7]): increased lipidation of LC3 | accumulation of Lamp1 protein in liver (immunoblot) (Vps15 LKO mice [3]; [7]): decreased Lamp1 and p62 protein levels | p62 protein levels in liver (immunoblot) (Vps15 LKO mice [3]; [7]): decreased Lamp1 and p62 protein levels | LC3 lipidation (LC3-II form) in liver (immunoblot) (Vps15 LKO mice [3]; [8]): induced an important lipidation of LC3 protein; also recorded: promoted LC3-lipidation | fatty acid oxidation in liver (metabolomics) (Vps15 LKO mice [4]; once per day by oral gavage): marked restoration of fatty acid oxidation | levels of long-chain fatty acid carnitines in liver (Vps15 LKO mice [4]; once per day by oral gavage): decreased levels of long-chain fatty acid carnitines | levels of short-chain fatty acid carnitines in liver (Vps15 LKO mice [4]; once per day by oral gavage): increased levels of short-chain fatty acid carnitines | fatty acid oxidation in liver (metabolomics) (Vps15 LKO mice [4]; once per day by oral gavage, listed as FENO): sufficient to restore the metabolic activity such as fatty-acid oxidation

desoxycholic acid [UDCA]
prognosis of patients (% of liver transplantation or survival) (BA patients): provided no evidence that it might positively affect prognosis of the patients

CC(C)(Oc1ccc(CCNC(=O)c2ccc(Cl)cc2)cc1)C(=O)O [bezafibrate, 2-(4-(2-((4-chlorobenzoyl)amino)ethyl)phenoxy)-2-methylpropanoic acid]
hepatocyte volume (histology) (Vps15 LKO mice [1]; [5]): reduce hepatocyte volume | hepatocyte vacuolation (hematoxylin/eosin) (Vps15 LKO mice [1]; [9]): sufficient to decrease hepatocyte vacuolation; also recorded: rescues hepatocyte vacuolation | portal area organization / architecture of intrahepatic biliary system (histology) (Vps15 LKO mice [1]; [9]): improve the portal area organization; also recorded: ameliorates architecture of intrahepatic biliary system | liver damage: activity of transaminases (ALAT, AST) in plasma (Vps15 LKO mice [2]; [5]): fenofibrate, independently of mode of administration, was more effective in lowering liver damage compared to bezafibrate treatment | spleen hypertrophy (ratio of spleen weight to body weight) (Vps15 LKO mice [2]; [5]): decreasing spleen hypertrophy | triglyceride (TG) levels in plasma (Vps15 LKO mice [2]; [5]): effective in lowering TG levels | LC3 lipidation (LC3-II form) in liver (immunoblot) (Vps15 LKO mice [3]; [5]): promoted LC3-lipidation | accumulation of Lamp proteins (Lamp1, Lamp2) in liver (immunoblot) (Vps15 LKO mice [3]; [5]): reduced | autophagic clearance in liver (Vps15 LKO mice [3]; [5]): promoted autophagic clearance | p62 protein levels in liver (immunoblot) (Vps15 LKO mice [3]; [5]): reduction of p62 accumulation | protein expression of PPARα target Fabp1 in liver (immunoblot) (Vps15 LKO mice [3]; [5]): equally effective in restoring | LC3 lipidation (LC3-II form) in liver (immunoblot) (Vps15 LKO mice [3]; [9]): increased lipidation of LC3 | accumulation of Lamp proteins (Lamp1, Lamp2) in liver (immunoblot) (Vps15 LKO mice [3]; [9]): decreased Lamp1 and p62 protein levels | p62 protein levels in liver (immunoblot) (Vps15 LKO mice [3]; [9]): decreased Lamp1 and p62 protein levels | fatty acid oxidation in liver (metabolomics) (Vps15 LKO mice [4]; drug incorporated in food): marked restoration of fatty acid oxidation | levels of long-chain fatty acid carnitines in liver (Vps15 LKO mice [4]; drug incorporated in food): decreased levels of long-chain fatty acid carnitines | levels of short-chain fatty acid carnitines in liver (Vps15 LKO mice [4]; drug incorporated in food): increased levels of short-chain fatty acid carnitines | fatty acid oxidation in liver (metabolomics) (Vps15 LKO mice [4]; drug incorporated in food, listed as BEZA): sufficient to restore the metabolic activity such as fatty-acid oxidation | PPARα transcriptional activity in liver (transcript levels of PPARα target genes) (PPARα; drug incorporated in food (fenofibrate 200 mg/kg or bezafibrate 0.5%)): equally efficient in restoring PPARα transcriptional activity; also recorded: restoration of PPARα function | liver inflammation (transcript levels of TNF1α, IL1β, F4/80) (PPARα; drug incorporated in food): effective in reducing the inflammation

Source: patent US12377066B2, “Treatment of diseases associated with biliary system destruction” (Assistance Publique-Hopitaux de Paris, priority 2018, dated 2025)
